Laboratory results taken from patent publication US6515159B2, “S,S-ethylenediamine-N,N′-disuccinic acid iron alkali salt and a process for production thereof” (Mitsubishi Rayon Co., Ltd., priority 1997, dated 2003).

What was measured:
[1] = storage stability of 40% aqueous solution (dissolution state after storage); format: physicochemical; conditions: 40% aqueous solution stored at 50° C. for 1 week, then diluted to 1%
Protocol: Each of the powders obtained in Examples 1, 10 and 13 and Comparative Examples 1 and 3 was dissolved to obtain a 40% aqueous solution. The solution was stored at 50° C. for 1 week and then diluted to 1% and the dissolution state of the resulting diluted solution was observed.

Row | SMILES | dissolution state of the resulting diluted solution [1] | pH of aqueous solution
1 | O=C([O-])C[C@H](NCCN[C@@H](CC(=O)[O-])C(=O)[O-])C(=O)[O-].[Fe+3].[Na+] [Example 1, S,S-ethylenediamine-N,N′-disuccinic acid iron sodium salt] | no insoluble material was found | 
2 | O=C(O)C[C@H](NCCN[C@@H](CC(=O)O)C(=O)O)C(=O)O [S,S-ethylenediamine-N,N′-disuccinic acid] |  | ~2
